Assay: solvent given as SMILES

COc1ccc(C2=N/C(=C\c3ccc(C#N)cc3)C(=O)O2)cc1OC
absorption maximum (in C1COCCO1): 393 nm

CCOC(=O)/C(C#N)=C\c1ccc2c(c1)c1ccccc1n2-c1ccc(C)cc1
absorption maximum (in C1CCOC1): 390 nm | absorption maximum (in CC#N): 389 nm | absorption maximum (in CC(C)=O): 388 nm | absorption maximum (in CCOC(C)=O): 400 nm | absorption maximum (in CO): 391 nm | absorption maximum (in CS(C)=O): 397 nm | absorption maximum (in Cc1ccccc1): 396 nm | absorption maximum (in ClC(Cl)Cl): 389 nm

Cc1cc(C)nc(N)n1
absorption maximum (in CCO): 297 nm | absorption maximum (in CO): 296 nm | absorption maximum (in O): 284 nm

c1ccc2[nH]c(-c3cc(-c4nc5ccccc5[nH]4)cc(-c4nc5ccccc5[nH]4)c3)nc2c1
absorption maximum (in CS(C)=O): 316 nm

O=c1cc2c(-c3c(O)c4cccc5ccc6oc(=O)cc3c6c54)c(O)c3cccc4ccc(o1)c2c43
absorption maximum (in CC1CCCO1): 486 nm

COc1ccc(C2=C3C(C)=CC(C=Cc4ccc(C(=O)OC5C[C@H]6CCC5(C)C6(C)C)cc4)=[N+]3[B-](F)(F)n3c(C)cc(C)c32)cc1 (stereo partly specified)
absorption maximum (in Cc1ccccc1): 568 nm

c1ccc(N2N=C(c3cccc4ccccc34)CC2c2ccc3ccc4cccc5ccc2c3c45)cc1 (stereo unspecified)
absorption maximum (in ClCCl): 391 nm

C(=C\c1nc2ccccc2[nH]1)/c1ccc(/C=C/c2nc3ccccc3[nH]2)cc1
absorption maximum (in C1CCOC1): 389 nm | absorption maximum (in CC#N): 382 nm | absorption maximum (in CC(C)=O): 395 nm | absorption maximum (in CN(C)C=O): 390 nm | absorption maximum (in CO): 384 nm | absorption maximum (in CS(C)=O): 392 nm

CCN(CC)c1ccc(-c2ccc(-c3nc(N4CCOCC4)c4ccccc4n3)s2)cc1
absorption maximum (in CC#N): 401 nm | absorption maximum (in Cc1ccccc1): 405 nm

O=c1oc2cccc3c4cccc5ccc6c7cc(F)ccc7c1c(c23)c6c54
absorption maximum (in C1CCOC1): 411 nm

Clc1ccc(-c2nc(-c3ccccc3)c(N(c3ccccc3)c3ccccc3)s2)cc1
absorption maximum (in ClC(Cl)Cl): 371 nm

Cc1ccccc1[B-]1(c2ccccc2C)n2nc(C(F)(F)F)cc2-c2c3ccccc3cc[n+]21
absorption maximum (in C1CCCCC1): 374 nm | absorption maximum (in Cc1ccccc1): 380 nm | absorption maximum (in ClCCl): 374 nm

CC(C)c1cc(C(C)C)c(B2c3ccccc3Oc3cc(N4c5ccccc5C(C)(C)c5ccccc54)ccc32)c(C(C)C)c1
absorption maximum (in Cc1ccccc1): 436 nm

N#CC1=c2cc3c4c(c2Oc2c1cc1c5c2CCCN5CCC1)CCC[N+]=4CCC3
absorption maximum (in CCO): 682 nm

CCOC(=O)c1c2c3c(ccc(Cl)c3c3cc4ccccc4cc13)N(C)C2=O
absorption maximum (in CC#N): 408 nm

CC(C)[Si](C#Cc1c2nc3ccccc3nc2c(C#C[Si](C(C)C)(C(C)C)C(C)C)c2nc3ccccc3nc12)(C(C)C)C(C)C
absorption maximum (in CCCCCC): 681 nm

C(#Cc1c(C#Cc2ccccc2)c(C#Cc2ccccc2)c(C#Cc2ccccc2)c(C#Cc2ccccc2)c1C#Cc1ccccc1)c1ccccc1
absorption maximum (in ClCCl): 371 nm

c1ccc2c(c1)c1ccccc1n2-c1ccc(-c2nnc(-c3ccc(-n4c5ccccc5c5ccccc54)cc3)o2)cc1
absorption maximum (in Cc1ccccc1): 343 nm

COc1ccc(C2C3=C(CCCC3=O)Nc3c2c(=O)oc2ccccc32)cc1 (stereo unspecified)
absorption maximum (in CS(C)=O): 361 nm

CCCCCCn1c(=O)c2c3[nH]c4ccccc4oc3c3c(=O)n(CCCCCC)c(=O)c3c2c1=O
absorption maximum (in ClCCl): 454 nm

CCC1=C(C)C2=C(C)c3cc(I)cn3[B-](F)(F)[N+]2=C1C
absorption maximum (in C1CCCCC1): 517.5 nm | absorption maximum (in CC(C)=O): 502.5 nm | absorption maximum (in CCO): 506 nm | absorption maximum (in CCOC(C)=O): 504.5 nm | absorption maximum (in CO): 503.5 nm | absorption maximum (in OCC(F)(F)F): 499.5 nm

COc1ccc(C#Cc2c3cc4ccccc4cc3c(C#C[Si](C(C)C)(C(C)C)C(C)C)c3cc4ccccc4cc23)cc1
absorption maximum (in ClCCl): 655 nm

Fc1ccccc1-c1nc2sc3ccccc3c2s1
absorption maximum (in CS(C)=O): 344 nm

CCCCCCN1C(=O)c2cccc3cc(/N=C\c4ccc(N(c5ccccc5)c5ccccc5)cc4)cc(c23)C1=O
absorption maximum (in ClC(Cl)Cl): 380 nm

C(=C\c1nc2ccccc2s1)/c1ccccc1
absorption maximum (in C1CCCCC1): 340 nm | absorption maximum (in CO): 340 nm

O=C(c1ccncc1)c1ccc(-n2c3ccc(-n4c5ccccc5c5ccccc54)cc3c3cc(-n4c5ccccc5c5ccccc54)ccc32)cc1
absorption maximum (in C1CCOC1): 341.83 nm | absorption maximum (in Cc1ccccc1): 360.08 nm | absorption maximum (in ClCCl): 341.83 nm

CC1(C)CC(/C=C/c2ccc(-n3ccnc3)cc2)=CC(=C(C#N)C#N)C1
absorption maximum (in C1CCOC1): 398 nm | absorption maximum (in CC#N): 390 nm | absorption maximum (in CCO): 391 nm | absorption maximum (in CCOC(C)=O): 390 nm | absorption maximum (in ClCCl): 393 nm | absorption maximum (in c1ccccc1): 397 nm

COc1ccc2c(=O)c3c([nH]c2c1)-c1cc(Cl)ccc1NC3(C)C
absorption maximum (in C1CCOC1): 411 nm | absorption maximum (in CC#N): 421 nm | absorption maximum (in CCCCO): 426 nm | absorption maximum (in CCCO): 426 nm | absorption maximum (in CCO): 426 nm | absorption maximum (in CCOC(C)=O): 417 nm | absorption maximum (in CN(C)C=O): 425 nm | absorption maximum (in CO): 428 nm | absorption maximum (in CS(C)=O): 426 nm | absorption maximum (in Cc1ccccc1): 405 nm | absorption maximum (in ClC(Cl)(Cl)Cl): 419 nm | absorption maximum (in ClCCl): 408 nm | absorption maximum (in O): 405 nm | absorption maximum (in c1ccccc1): 420 nm
